According to ChEMBL document CHEMBL1681651, “A broad spectrum anticancer nucleoside with selective toxicity against human colon cells in vitro” (2011):

Legend:
Type in all cases: functional
SF-295 [1] = test: Growth inhibition of human SF295 cells assessed as cell growth at 1 mM after 48 hrs by SRB assay; conditions: SF-295, 48 h, read-out: Activity
A549 = test: Growth inhibition of human A549 cells assessed as cell growth at 0.1 uM after 48 hrs by SRB assay; conditions: A549, 48 h, read-out: Activity
NCI-H23 = test: Growth inhibition of human NCI-H23 cells assessed as cell growth at 1 uM after 48 hrs by SRB assay; conditions: NCI-H23, 48 h, read-out: Activity
HCT-15 [2] = test: Growth inhibition of human HCT15 cells assessed as cell growth at 100 uM after 48 hrs by SRB assay; conditions: HCT-15, 48 h, read-out: Activity
UACC-257 [3] = test: Growth inhibition of human UACC257 cells assessed as cell growth at 1 mM after 48 hrs by SRB assay; conditions: UACC-257, 48 h, read-out: Activity
UACC-257 [4] = test: Growth inhibition of human UACC257 cells after 48 hrs by […] growth inhibition assay; conditions: UACC-257, 48 h
HCT-15 [5] = test: Growth inhibition of human HCT15 cells after 48 hrs by […] growth inhibition assay; conditions: HCT-15, 48 h
SNB-75 = test: Growth inhibition of human SNB75 cells assessed as cell growth at 100 uM after 48 hrs by SRB assay; conditions: SNB-75, 48 h, read-out: Activity
CCRF-CEM = test: Growth inhibition of human CCRF-CEM cells after 48 hrs by […] growth inhibition assay
OVCAR-3 = test: Growth inhibition of human OVCAR3 cells assessed as cell growth at 0.1 uM after 48 hrs by SRB assay; conditions: OVCAR-3, 48 h, read-out: Activity
MDA-MB-231 = test: Growth inhibition of human MDA-MB-231 cells assessed as cell growth at 1 mM after 48 hrs by SRB assay; conditions: MDA-MB-231, 48 h, read-out: Activity
HCC 2998 [6] = test: Growth inhibition of human HCC2998 cells assessed as cell growth at 100 uM after 48 hrs by SRB assay; conditions: HCC 2998, 48 h, read-out: Activity
M14 = test: Growth inhibition of human M14 cells assessed as cell growth at 100 uM after 48 hrs by SRB assay; conditions: M14, 48 h, read-out: Activity
HCT-116 = test: Growth inhibition of human HCT116 cells assessed as cell growth at 1 uM after 48 hrs by SRB assay; conditions: HCT-116, 48 h, read-out: Activity
IGROV-1 = test: Growth inhibition of human IGROV1 cells assessed as cell growth at 1 mM after 48 hrs by SRB assay; conditions: IGROV-1, 48 h, read-out: Activity
SK-MEL-2 = test: Growth inhibition of human SK-MEL-2 cells assessed as cell growth at 0.1 uM after 48 hrs by SRB assay; conditions: SK-MEL-2, 48 h, read-out: Activity
Malme-3M [7] = test: Growth inhibition of human MALME-3M cells after 48 hrs by […] growth inhibition assay
T47D = test: Growth inhibition of human T47D cells assessed as cell growth at 0.1 uM after 48 hrs by SRB assay; conditions: read-out: Activity
NCI/ADR-RES = test: Growth inhibition of human NCI/ADR-RES cells assessed as cell growth at 10 uM after 48 hrs by SRB assay; conditions: read-out: Activity
SF-539 = test: Growth inhibition of human SF539 cells assessed as cell growth at 0.1 uM after 48 hrs by SRB assay; conditions: SF-539, 48 h, read-out: Activity
A498 = test: Growth inhibition of human A498 cells after 48 hrs by […] growth inhibition assay; conditions: A498, 48 h
HCC 2998 [8] = test: Growth inhibition of human HCC2998 cells assessed as cell growth at 10 uM after 48 hrs by SRB assay; conditions: HCC 2998, 48 h, read-out: Activity
OVCAR-8 = test: Growth inhibition of human OVCAR8 cells assessed as cell growth at 1 mM after 48 hrs by SRB assay; conditions: OVCAR-8, 48 h, read-out: Activity
[9] = Growth inhibition of human […] cells assessed as cell growth at 0.1 uM after 48 hrs by SRB assay; conditions: read-out: Activity
HOP-92 = test: Growth inhibition of human HOP92 cells assessed as cell growth at 0.1 uM after 48 hrs by SRB assay; conditions: HOP-92, 48 h, read-out: Activity
UACC-257 [10] = test: Growth inhibition of human UACC257 cells assessed as cell growth at 1 uM after 48 hrs by SRB assay; conditions: UACC-257, 48 h, read-out: Activity
EKVX = test: Growth inhibition of human EKVX cells after 48 hrs by […] growth inhibition assay
Malme-3M [11] = test: Growth inhibition of human MALME-3M cells assessed as cell growth at 1 mM after 48 hrs by SRB assay; conditions: read-out: Activity
SF-295 [12] = test: Growth inhibition of human SF295 cells after 48 hrs by […] growth inhibition assay; conditions: SF-295, 48 h
COLO 205 = test: Growth inhibition of human COLO205 cells assessed as cell growth at 0.1 uM after 48 hrs by SRB assay; conditions: COLO 205, 48 h, read-out: Activity
SK-OV-3 = test: Growth inhibition of human SKOV3 cells assessed as cell growth at 0.1 uM after 48 hrs by SRB assay; conditions: SK-OV-3, 48 h, read-out: Activity
RXF 393 = test: Growth inhibition of human RXF393 cells assessed as cell growth at 1 uM after 48 hrs by SRB assay; conditions: RXF 393, 48 h, read-out: Activity
[13] = read-out: LC50 (the source's name)
[14] = read-out: pLC50 (the source's name) (converted)

Structure (SMILES): CNC(=O)NC[C@H]1O[C@@H](n2cnc3c(NC(=O)Nc4ccccc4)ncnc32)[C@H](O[Si](C)(C)C(C)(C)C)[C@@H]1O[Si](C)(C)C(C)(C)C
- growth at 1000 µM (SF-295 [1]): -7%
- growth at 0.1 µM (A549): 99%
- growth at 1 µM (NCI-H23): 106%
- growth at 100 µM (HCT-15 [2]): 11%
- growth at 1000 µM (UACC-257 [3]): -24%
- GI50 (UACC-257 [4]; read-out: GI50): 3.78 µM
- CC50 (UACC-257 [4]; [13]): > 100 µM
- TGI (UACC-257 [4]; read-out: TGI): 20.2 µM
- GI50 (UACC-257 [4]; read-out: pGI50 (converted)): 3.8 µM
- CC50 (UACC-257 [4]; [14]): > 100 µM
- TGI (UACC-257 [4]; read-out: pTGI (converted)): 20 µM
- GI50 (HCT-15 [5]; read-out: GI50): 3.62 µM
- CC50 (HCT-15 [5]; [13]): > 100 µM
- TGI (HCT-15 [5]; read-out: TGI): > 100 µM
- GI50 (HCT-15 [5]; read-out: pGI50 (converted)): 3.63 µM
- CC50 (HCT-15 [5]; [14]): > 100 µM
- TGI (HCT-15 [5]; read-out: pTGI): > 100 µM
- growth at 100 µM (SNB-75): 14%
- GI50 (CCRF-CEM; read-out: GI50): 3.59 µM
- LC50 (lethal concentration, 50% net cell kill) (CCRF-CEM; read-out: LC50): > 100 µM
- TGI (CCRF-CEM; read-out: TGI): > 100 µM
- GI50 (CCRF-CEM; read-out: pGI50 (converted)): 3.63 µM
- LC50 (lethal concentration, 50% net cell kill) (CCRF-CEM; read-out: pLC50 (converted)): > 100 µM
- TGI (CCRF-CEM; read-out: pTGI (converted)): > 100 µM
- growth at 0.1 µM (OVCAR-3): 111%
- growth at 1000 µM (MDA-MB-231): -76%
- growth at 100 µM (HCC 2998 [6]): -79%
- growth at 100 µM (M14): 19%
- growth at 1 µM (HCT-116): 105%
- growth at 1000 µM (IGROV-1): -39%
- growth at 0.1 µM (SK-MEL-2): 108%
- GI50 (Malme-3M [7]; read-out: GI50): 2.98 µM
- LC50 (concentration killing 50% of cells) (Malme-3M [7]; read-out: LC50): > 100 µM
- TGI (Malme-3M [7]; read-out: TGI): 9.84 µM
- GI50 (Malme-3M [7]; read-out: pGI50 (converted)): 2.95 µM
- LC50 (concentration killing 50% of cells) (Malme-3M [7]; read-out: pLC50 (converted)): > 100 µM
- TGI (Malme-3M [7]; read-out: pTGI (converted)): 9.77 µM
- growth at 0.1 µM (T47D): 101%
- growth at 10 µM (NCI/ADR-RES): 103%
- growth at 0.1 µM (SF-539): 100%
- GI50 (A498; read-out: GI50): 2.03 µM
- CC50 (A498; [13]): 19.5 µM
- TGI (A498; read-out: TGI): 4.96 µM
- GI50 (A498; read-out: pGI50 (converted)): 2.04 µM
- CC50 (A498; [14]): 19.5 µM
- TGI (A498; read-out: pTGI (converted)): 5.01 µM
- growth at 10 µM (HCC 2998 [8]): 106%
- growth at 1000 µM (OVCAR-8): -9%
- growth at 0.1 µM [9]: 102%
- growth at 0.1 µM (HOP-92): 85%
- growth at 1 µM (UACC-257 [10]): 100%
- GI50 (EKVX; read-out: GI50): 3.7 µM
- CC50 (EKVX; [13]): > 100 µM
- TGI (EKVX; read-out: TGI): 30.6 µM
- GI50 (EKVX; read-out: pGI50 (converted)): 3.72 µM
- CC50 (EKVX; [14]): > 100 µM
- TGI (EKVX; read-out: pTGI (converted)): 30.9 µM
- growth at 1000 µM (Malme-3M [11]): -48%
- GI50 (SF-295 [12]; read-out: GI50): 3.84 µM
- LC50 (SF-295 [12]; read-out: LC50): > 100 µM
- TGI (SF-295 [12]; read-out: TGI): 31.8 µM
- GI50 (SF-295 [12]; read-out: pGI50 (converted)): 3.8 µM
- LC50 (SF-295 [12]; read-out: pLC50 (converted)): > 100 µM
- TGI (SF-295 [12]; read-out: pTGI (converted)): 31.6 µM
- growth at 0.1 µM (COLO 205): 109%
- growth at 0.1 µM (SK-OV-3): 108%
- growth at 1 µM (RXF 393): 73%

Structure (SMILES): CNC(=O)OC[C@H]1O[C@@H](n2cnc3c(NC(=O)Nc4ccccc4)ncnc32)[C@H](O[Si](C)(C)C(C)(C)C)[C@@H]1O[Si](C)(C)C(C)(C)C
- growth at 10 µM (NCI/ADR-RES): 97.6%
